# According to patent US11999746B2, “Compounds” (GlaxoSmithKline Intellectual Property Development Limited, priority 2014, dated 2024):
# Key:
# [1] = target: T1, Lp-PLA2 in human plasma (Homo sapiens, UniProt Q13093); experiment: (3a) Lp-PLA2 human plasma Thio-PAF assay; type: biochemical; details: (3a) Thio-PAF assay, pooled human plasma; Examples 1-265 and 413-430 were tested here; read-out: pIC50 in the Lp-PLA2 human plasma assay (converted)
# T1 construct: from tissue; host or cells: pooled human plasma
# T1 sequence (Q13093 22-441): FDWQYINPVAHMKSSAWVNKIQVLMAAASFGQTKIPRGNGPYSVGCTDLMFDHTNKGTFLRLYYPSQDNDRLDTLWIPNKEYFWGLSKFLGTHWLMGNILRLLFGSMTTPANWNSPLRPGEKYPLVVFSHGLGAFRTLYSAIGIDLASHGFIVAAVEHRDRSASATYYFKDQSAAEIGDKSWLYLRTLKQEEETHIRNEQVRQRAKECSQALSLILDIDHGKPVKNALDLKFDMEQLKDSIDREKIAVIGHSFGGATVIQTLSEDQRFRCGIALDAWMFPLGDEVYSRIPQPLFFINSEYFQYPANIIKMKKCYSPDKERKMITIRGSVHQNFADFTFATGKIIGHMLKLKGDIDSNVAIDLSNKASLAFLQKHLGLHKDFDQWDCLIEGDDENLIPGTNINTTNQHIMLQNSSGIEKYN
# In short: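 Pooled human plasma preincubated 30 min with serially diluted compound, then given 2-thio-PAF substrate with CPM and NEM in 50 mM HEPES pH 7.4, 150 mM NaCl, 1 mM CHAPS. Reaction quenched with TFA after 2 min; CPM thiol-adduct fluorescence read at ex 380/em 485 after 40 min; pIC50 reported.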
# [2] = target: T2, recombinant human Lp-PLA2 (Homo sapiens, UniProt Q13093); experiment: (1a) PED6 assay, recombinant human Lp-PLA2 (rhLp-PLA2); type: biochemical; details: Examples 1-167 and 413-430 were tested here, one experiment or average of multiple experiments, read-out: rhLp-PLA2 (pIC50) (converted)
# T2 sequence (Q13093 22-441): T1 sequence (Q13093 22-441)
# In short: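 PED6 (2 μM final after 1:1 addition of 4 μM stock) cleavage by rhLp-PLA2 (4 nM working solution) in 50 mM HEPES pH 7.4, 150 mM NaCl, 1 mM CHAPS; compounds preincubated with enzyme 30 minutes, reaction 20 min at room temperature. Fluorescence at ex 480/em 540; pIC50 from curve fit.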
IC50 [1],IC50 [2],Structure (SMILES)
≤ 10000 nM,≤ 100 nM,"O=c1nc(OCc2cc(F)c(OC3CN(CCC(F)(F)F)C3)c(F)c2)cc2n1CC1CCCN21 (stereo not shown) [Example E96, 3-((3,5-Difluoro-4-((1-(3,3,3-trifluoropropyl)azetidin-3-yl)oxy)benzyl)oxy)-7,8,8a,9-tetrahy dropyrrolo[1′,2′:3,4]imidazo[1,2-c]pyrimidin-1(6H)-one]"
≤ 100 nM,≤ 1 nM,"O=c1nc(OCc2ccc(Oc3ccc(C(F)(F)F)nc3)c(F)c2)cc2n1CC1CCCCN21 (stereo not shown) [Example E38, 3-((3-Fluoro-4-((6-(trifluoromethyl)pyridin-3-yl)oxy)benzyl)oxy)-6,7,8,9,9a,10-hexahydro-1H-pyrido[1′,2′:3,4]imidazo[1,2-c]pyrimidin-1-one]"
≤ 10000 nM,≤ 100 nM,"O=c1nc(OCc2cccc(F)c2)cc2n1C[C@@H]1CCOCN21 [Example E138, (S)-3-((3-fluorobenzyl)oxy)-8,9,9a,10-tetrahydropyrimido[6′,1′:2,3]imidazo[1,5-c][1,3] oxazin-1(6H)-one]"
≤ 100 nM,≤ 100 nM,"Cc1cc(Oc2c(F)cc(COc3cc4n(c(=O)n3)C[C@@H]3COCCN43)cc2F)ccn1 [Example E117, (R)-7-((3,5-difluoro-4-((2-methylpyridin-4-yl)oxy)benzyl)oxy)-3,4,11,11atetrahydropyrimido[6′,1′:2,3]imidazo[5,1-c][1,4]oxazin-9(1H)-one]"
≤ 10000 nM,≤ 100 nM,"O=c1nc(OCc2cc(F)cc(F)c2)cc2n1C[C@H]1CCCCN21 [Example E53, (R)-3-((3,5-Difluorobenzyl)oxy)-6,7,8,9,9a,10-hexahydro-1H-pyrido[1′,2′:3,4]imidazo[1,2-c] pyrimidin-1-one]"
≤ 10000 nM,≤ 100 nM,"O=c1nc(OCc2cc(F)c(OC3CCC(F)(F)C3)c(F)c2)cc2n1C[C@@H]1CCCN21 (stereo partly drawn) [Example E95, (S)-3-((4-((3,3-difluorocyclopentyl)oxy)-3,5-difluorobenzyl)oxy)-7,8,8a,9-tetrahydropyrrolo[1′,2′:3,4]imidazo[1,2-c]pyrimidin-1(6H)-one]"
≤ 10000 nM,≤ 100 nM,CN1c2cc(OCc3cccc(F)c3)nc(=O)n2CC12CCCCC2 [Example 417]
≤ 10000 nM,≤ 100 nM,"O=c1nc(OCc2ccc(Oc3ccc(F)c(C(F)(F)F)c3)nc2)cc2n1C[C@@H]1CCCN21 [Example E84, (S)-3-((6-(4-fluoro-3-(trifluoromethyl)phenoxy)pyridin-3-yl)methoxy)-7,8,8a,9-tetrahydro pyrrolo[1′,2′:3,4]imidazo[1,2-c]pyrimidin-1(6H)-one]"
≤ 100 nM,≤ 1 nM,"O=c1nc(OCc2ccc(Oc3cncc(C(F)(F)F)c3)c(F)c2)cc2n1CC1CCCCN21 (stereo not shown) [Example E47, 3-((3-Fluoro-4-((5-(trifluoromethyl)pyridin-3-yl)oxy)benzyl)oxy)-6,7,8,9,9a,10-hexahydro-1H-pyrido[1′,2′:3,4]imidazo[1,2-c]pyrimidin-1-one]"
≤ 10000 nM,≤ 100 nM,"O=c1nc(OCc2cc(F)c(Oc3ccc(F)c(F)c3)c(F)c2)cc2n1C[C@@H]1CCCN21 [Example E74, (S)-3-((4-(3,4-difluorophenoxy)-3,5-difluorobenzyl)oxy)-7,8,8a,9-tetrahydropyrrolo[1′,2′:3,4]imidazo[1,2-c]pyrimidin-1(6H)-one]"
≤ 10000 nM,≤ 100 nM,"O=c1nc(OCc2ccc(Oc3ccc(F)c(C(F)(F)F)c3)nc2)cc2n1CC1CCCN21 (stereo not shown) [Example E82, 3-((6-(4-fluoro-3-(trifluoromethyl)phenoxy)pyridin-3-yl)methoxy)-7,8,8a,9-tetrahydro pyrrolo[1′,2′:3,4]imidazo[1,2-c]pyrimidin-1(6H)-one]"
≤ 100 nM,≤ 1 nM,"O=c1nc(OCc2ccc(Oc3cncc(C(F)(F)F)c3)c(F)c2)cc2n1C[C@@H]1CCCCN21 [Example E42, (S)-3-((3-fluoro-4-((5-(trifluoromethyl)pyridin-3-yl)oxy)benzyl)oxy)-6,7,8,9,9a,10-hexahydro-1H-pyrido[1′,2′:3,4]imidazo[1,2-c]pyrimidin-1-one]"
≤ 100 nM,≤ 1 nM,"O=c1nc(OCc2cc(F)c(Oc3cnc(C(F)(F)F)nc3)c(F)c2)cc2n1C[C@@H]1CCCN21 [Example E91, (S)-3-((3,5-difluoro-4-((2-(trifluoromethyl)pyrimidin-5-yl)oxy)benzyl)oxy)-7,8,8a,9-tetra hydropyrrolo[1′,2′:3,4]imidazo[1,2-c]pyrimidin-1(6H)-one]"
≤ 100 nM,≤ 100 nM,"O=c1nc(OCc2cc(F)cc(F)c2)cc2n1C[C@H]1COCCN21 [Example E129, (S)-7-((3,5-difluorobenzyl)oxy)-3,4,11,11a-tetrahydropyrimido[6′,1′:2,3]imidazo[5,1-c][1,4] oxazin-9(1H)-one]"
≤ 100 nM,≤ 1 nM,"O=c1nc(OCc2cc(F)c(Oc3ccnc(C(F)(F)F)c3)c(F)c2)cc2n1CC1CCCCN21 (stereo not shown) [Example E45, 3-((3,5-Difluoro-4-((2-(trifluoromethyl)pyridin-4-yl)oxy)benzyl)oxy)-6,7,8,9,9a,10-hexahydro-1H-pyrido[1′,2′:3,4]imidazo[1,2-c]pyrimidin-1-one]"
≤ 10000 nM,≤ 100 nM,"CN1c2cc(OCc3cc(F)c(F)cc3F)nc(=O)n2CC12CCCCC2 [Example 428, 1-methyl-7′-((2,4,5-trifluorobenzyl)oxy)-1′H-spiro[cyclohexane-1,2′-imidazo[1,2-c]pyrimidin]-5′(3′H)-one]"
≤ 100 nM,≤ 1 nM,"O=c1nc(OCc2cc(F)c(Oc3ccnc(C(F)(F)F)c3)c(F)c2)cc2n1C[C@H]1CCOCN21 [Example E135, (R)-3-((3,5-difluoro-4-((2-(trifluoromethyl)pyridin-4-yl)oxy)benzyl)oxy)-8,9,9a,10-tetrahydropyrimido[6′,1′:2,3]imidazo[1,5-c][1,3]oxazin-1(6H)-one]"
≤ 10000 nM,≤ 100 nM,"Cc1ncc(Oc2c(F)cc(COc3cc4n(c(=O)n3)C[C@@H]3COCN43)cc2F)cn1 [Example E159, (R)-6-((3,5-difluoro-4-((2-methylpyrimidin-5-yl)oxy)benzyl)oxy)-10,10a-dihydro-1H-oxazolo[3′,4′:3,4]imidazo[1,2-c]pyrimidin-8(3H)-one]"
≤ 10000 nM,≤ 100 nM,"O=c1nc(OCc2cc(F)cc(Cl)c2)cc2n1CC1CCCCN21 (stereo not shown) [Example E29, 3-((3-Chloro-5-fluorobenzyl)oxy)-6,7,8,9,9a,10-hexahydro-1H-pyrido[1′,2′:3,4]imidazo[1,2-c]pyrimidin-1-one]"
≤ 100 nM,≤ 100 nM,"CN1c2cc(OCc3cccc(F)c3F)nc(=O)n2CC12CCCC2 [Example 426, 7′4(2,3-difluorobenzyhoxy)-1-methyl-1H-spiro[cyclopentane-1,2′-imidazo[1,2-c]pyrimidin]-5′(3′H)-one]"
≤ 10000 nM,≤ 100 nM,"O=c1nc(OCc2ccc(F)cc2F)cc2n1C[C@@H]1COCCN21 [Example E130, (R)-7-((2,4-difluorobenzyl)oxy)-3,4,11,11a-tetrahydropyrimido[6′,1′:2,3]imidazo[5,1-c][1,4] oxazin-9(1H)-one]"
≤ 100 nM,0.501 nM,"Cc1cc(Oc2c(F)cc(COc3cc4n(c(=O)n3)C[C@H]3COCCN43)cc2F)ccn1 [Example E124, (S)-7-((3,5-difluoro-4-((2-methylpyridin-4-yl)oxy)benzyl)oxy)-3,4,11,11atetrahydropyrimido[6′,1′:2,3]imidazo[5,1-c][1,4]oxazin-9(1H)-one]"
≤ 100 nM,1 nM,"CCn1cc(Oc2c(F)cc(COc3cc4n(c(=O)n3)C[C@H]3COCCN43)cc2F)cn1 [Example E115, (S)-7-((4-((1-ethyl-1H-pyrazol-4-yl)oxy)-3,5-difluorobenzyl)oxy)-3,4,11,11a-tetrahydropyrimido[6′,1′:2,3]imidazo[5,1-c][1,4]oxazin-9(1H)-one]"
≤ 100 nM,≤ 100 nM,"Cn1cc(Oc2c(F)cc(COc3cc4n(c(=O)n3)CC3COCCN43)cc2F)cn1 (stereo not shown) [Example E108, 7-((3,5-Difluoro-4-((1-methyl-1H-pyrazol-4-yl)oxy)benzyl)oxy)-3,4,11,11a-tetrahydro pyrimido[6′,1′:2,3]imidazo[5,1-c][1,4]oxazin-9(1H)-one]"
≤ 100 nM,≤ 1 nM,O=c1nc(OCc2cc(F)c(Oc3ccnc(C(F)(F)F)c3)c(F)c2)cc2n1CC1CCCCN21 (stereo not shown) [Example E41]
≤ 100 nM,≤ 1 nM,"O=c1nc(OCc2cc(F)c(Oc3ccc(C(F)(F)F)nc3)c(F)c2)cc2n1CC1CCCCN21 (stereo not shown) [Example E39, 3-((3,5-Difluoro-4-((6-(trifluoromethyl)pyridin-3-yl)oxy)benzyl)oxy)-6,7,8,9,9a,10-hexahydro 1H-pyrido[1′,2′:3,4]imidazo[1,2-c]pyrimidin-1-one]"
